Measured values from US11166930B2, “Isotopically modified components and therapeutic uses thereof” (RETROTOPE, INC., priority 2016, dated 2021).

Tests used:
[1] = test system: Aldh2−/− mice; conditions: Aldh2−/− mice as well as APP/PS1 and 3×Tg transgenic mice; cited from earlier work
[2] = biological target: COX1 (Homo sapiens, UniProt P23219); conditions: compared with other types of deuterated arachidonic acid; unmodified arachidonic acid as control
Experimental: The effect of a high level of isotopically modified polyunsaturated lipid (e.g. arachidonic acids having deuterium at bis-allylic sites) on the enzymatic activity of cyclooxygenase (COX) was examined in vitro. The COX1 activity was measured by oxygen consumption (Clark electrode) in vitro. […] Arachidonic acid with no deuterium modification was used as a control.

COX1, sequence (P23219 24-599): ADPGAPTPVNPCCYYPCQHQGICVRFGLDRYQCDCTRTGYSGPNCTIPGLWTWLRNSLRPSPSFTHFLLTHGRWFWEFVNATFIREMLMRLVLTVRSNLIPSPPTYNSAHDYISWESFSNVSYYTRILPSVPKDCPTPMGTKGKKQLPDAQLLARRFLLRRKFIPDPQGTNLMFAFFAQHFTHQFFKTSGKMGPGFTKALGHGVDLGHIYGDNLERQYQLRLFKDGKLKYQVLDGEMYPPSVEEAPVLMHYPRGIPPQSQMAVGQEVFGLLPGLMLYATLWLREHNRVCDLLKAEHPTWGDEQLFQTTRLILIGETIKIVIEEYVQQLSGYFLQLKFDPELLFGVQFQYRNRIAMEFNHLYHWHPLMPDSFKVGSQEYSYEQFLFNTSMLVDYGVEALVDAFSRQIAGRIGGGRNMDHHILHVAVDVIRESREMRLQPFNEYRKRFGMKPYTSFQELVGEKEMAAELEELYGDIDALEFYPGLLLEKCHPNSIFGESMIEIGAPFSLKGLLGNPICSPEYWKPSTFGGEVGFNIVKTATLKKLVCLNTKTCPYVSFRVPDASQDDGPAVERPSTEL

Structure (SMILES) | memory [1] | reduction of COX1 activity [2]
Cc1ncsc1CCO[N+](=O)[O-].Cl [NMZ, 4-methyl-5-(2-(nitrooxy)ethyl)thiazol-3-ium chloride] | memory can be improved | –
[2H]C([2H])(/C=C\C/C=C\C/C=C\CCCC(=O)O)/C=C\CCCCC [13,13-D2-arachidonic acid] | – | most effective in reducing the activity of COX1
